Assay results reported in PMC6964649, “Light-controllable dithienylethene-modified cyclic peptides: photoswitching the in vivo toxicity in zebrafish embryos” (Beilstein Journal of Organic Chemistry, 2020).
Where “and” joins values, the source holds several entries; their conditions need not be identical. Equal values may be shown once. Marks after values point to notes of the source that are not given here. Starred links: 1 amine or outer side, 2 acyl side, 3 side chain; linkers in the order of their positions; H or OH if unused. Positions of bridges follow the written chain, without caps; N, C: chain ends. Non-standard residues stand in square brackets, D forms with d. Residues, ends and D or L forms follow the SMILES beside them. *: point of attachment. X2 = Cc1sc(C(=O)[C@@H]2CCCN2[*:2])cc1C1=C(c2cc(C(=O)[*:1])sc2C)CCC1; Leu(3R-OH) = CC(C)[C@@H](O)[C@H](N)C(=O)O; NMeL = CN[C@@H](CC(C)C)C(=O)O; Isobutyryl = CC(C)C(=O)*; Orn = NCCC[C@H](N)C(=O)O; Dab = NCC[C@H](N)C(=O)O; NHiPr = CC(C)N*

Columns and labels:
[1] = tested on: D. rerio embryos; assay: D. rerio embryotoxicity assay, direct application of ring-open photoform; format: in vivo, Danio rerio; conditions: direct application of 1 or ring-open photoform, zebrafish embryos at 3 dpf, final DMSO 0.2%, ambient light, value ± STD; for LD50 (open)^1h: 1 h incubation, 12–15 or 18–20 embryos; for LD50 (open)^3h: 3 h incubation; for LD50 (open)^24h: 24 h incubation
Protocol: (§1) To establish the assay for screening the photoswitchable peptides, we first studied the toxicity of our prototype 2 by varying the assay conditions. The parent peptide GS 1 was used as a control. […] We measured the doses causing the death of 50% embryos (LD50). We tested two different assay variations: in one version, the LD50(open) was determined after direct application of 1 or of the ring-open form of 2. In the other variant, the photoswitchable peptide was applied in the ring-closed photoform in the darkness, its LD50(closed) was recorded, and then in situ illumination (“photoactivation”) was applied to switch into the ring-open photoform and obtain the respective LD50(opened) values (see Figure 2 for the study design and the killing curves).
(§2) Figure 2 Two versions of the D. rerio embryotoxicity assay for DAE-modified peptides: timelines, peptide photostates, ages of larvae, and definitions of the measured characteristics. (A) Direct application of the non-photoswitchable parent GS 1 or of the ring-open photoform of our prototype 2, and the corresponding killing curves for 1 (C, top, black) and 2 (C, bottom, red). (B) “Photoactivation” assay: initial application of the ring-closed photoform, incubation in darkness, followed by in situ photoconversion into the ring-open(ed) photoform, with the corresponding killing curves for 1 (D, top) and 2 (D, bottom, green for ring-closed, red for ring-open isomers). The latter panel illustrates the “phototherapeutic safety window” (green arrow) as the difference in toxicity between the ring-closed and the ring-open isomers upon photoactivation.
(§3) Each time, 12–15 or 18–20 zebrafish embryos at 3 dpf were treated by applying the corresponding peptide dissolved in dimethyl sulfoxide (final dimethyl sulfoxide concentration was 0.2%). Double-concentrated peptide stock solutions (64–512 µg/mL) were prepared by weighing lyophilized peptides, dissolving in 10% dimethyl sulfoxide and constructing two-fold dilution series with ten–eleven dilution steps. In the photoconversion experiments, in order to prevent spontaneous photoswitching of the ring-closed peptides by vis light, zebrafish embryos and peptides were kept in the dark before the first readout, and the vials were sealed to avoid evaporation of the embryonic medium (E3) at prolonged incubation times. After the first screen, without exchanging any solution, the vials with embryos and ring-closed photoforms were exposed to intense illumination for 10 min (LUMATEC Superlite 410 light source, λ = 570 nm, irradiance approximately 20 mW/cm^2). Mortality was then determined under ambient light conditions at 1 h and 24 h after the illumination procedure.

[2] = tested on: D. rerio embryos; assay: D. rerio embryotoxicity "photoactivation" assay (ring-closed photoform in darkness, then in situ photoconversion); format: in vivo, Danio rerio; conditions: for LD50 (opened)^1h / LD50 (opened)^24h: after 24 h with ring-closed form in dark, in situ illumination 10 min, λ = 570 nm, approx. 20 mW/cm^2; for LD50 (opened)^1h: mortality 1 h after illumination, embryos 4 dpf; for LD50 (opened)^24h: mortality 24 h after illumination, embryos 5 dpf at readout; for LD50(closed)^24h/LD50(open)^24h ratio: phototherapeutic safety window, ring-closed 24 h LD50 (dark) divided by ring-open 24 h LD50 (direct application); for LD50 (closed)^24h: ring-closed photoform applied to embryos at 3 dpf, 24 h in the dark
Protocol: as §1, §2, §3

[3] = sealed vials, E3 medium, 0.2% DMSO, value ± STD

Row | SMILES | LD50 (open)^1h [1] | LD50 (open)^3h [1] | LD50 (open)^24h [1] | LD50 (opened)^1h ([2]; value ± STD) | LD50 (opened)^24h ([2]; value ± STD) | LD50(closed)^24h/LD50(open)^24h ratio [2] | LD50 (closed)^24h [2, 3] | LD50 (closed)^24h ([2]; measurement performed once, STD not calculated)
1 | CC(C)C[C@@H]1NC(=O)[C@H](CCCN)NC(=O)[C@H](C(C)C)NC(=O)[C@@H]2CCCN2C(=O)[C@@H](Cc2ccccc2)NC(=O)[C@H](CC(C)C)NC(=O)[C@H](CCCN)NC(=O)[C@H](C(C)C)NC(=O)[C@@H]2CCCN2C(=O)[C@@H](Cc2ccccc2)NC1=O [Peptide 1, gramicidin S, reference compound] (cyclo(L[dF]PV[Orn]L[dF]PV[Orn])) | 2.8 ± 2.7 µg/mL | 2.0 ± 3.0 µg/mL | 2.4 ± 0.2 µg/mL | – | – | – | – | –
2 | Cc1sc2cc1C1=C(CCC1)c1cc(sc1C)C(=O)[C@@H]1CCCN1C(=O)[C@H](C)NC(=O)[C@H](CCCN)NC(=O)[C@H](C(C)C)NC(=O)[C@@H]1CCCN1C(=O)[C@@H](Cc1ccccc1)NC(=O)[C@H](CC(C)C)NC(=O)[C@H](CCCN)NC(=O)[C@H](C(C)C)NC2=O [Peptide 3] | 9.3 ± 7.8 µg/mL | 4.8 ± 3.9 µg/mL | 4.7 ± 0.1 µg/mL | 9.5 ± 1.3 µg/mL | 6.2 ± 0.6 µg/mL | 6.6 | 31.1 ± 4.2 µg/mL | –
3 | Cc1sc2cc1C1=C(CCC1)c1cc(sc1C)C(=O)[C@@H]1CCCN1C(=O)[C@H](C)NC(=O)[C@H](CCCN)NC(=O)[C@H](C(C)C)NC(=O)[C@@H]1CCCN1C(=O)[C@@H](Cc1ccccc1)NC(=O)[C@H](CC(C)C)NC(=O)[C@H](CCCN)NC(=O)[C@H](C)NC2=O [Peptide 4] (A[Orn]L[dF]PV[Orn]A; linker N-C via X2) | 69.8 ± 10.5 µg/mL | 40.6 ± 11.2 µg/mL | 19.0 ± 1.3 µg/mL | 51.0 ± 7.7 µg/mL | 12.9 ± 1.9 µg/mL | 10.4 | – | –
4 | Cc1sc2cc1C1=C(CCC1)c1cc(sc1C)C(=O)[C@@H]1CCCN1C(=O)[C@H](CC(C)C)NC(=O)[C@H](CCCN)NC(=O)[C@H](C(C)C)NC(=O)[C@@H]1CCCN1C(=O)[C@@H](Cc1ccccc1)NC(=O)[C@H](CC(C)C)NC(=O)[C@H](CCCN)NC(=O)[C@H](CCCN)NC2=O [Peptide 5] | 4.8 ± 2.2 µg/mL | 2.8 ± 1.9 µg/mL | 3.3 ± 0.7 µg/mL | 8.1 ± 1.0 µg/mL | 5.3 ± 0.5 µg/mL | 2.5 | 8.1 ± 1.0 µg/mL | –
5 | Cc1sc2cc1C1=C(CCC1)c1cc(sc1C)C(=O)[C@@H]1CCCN1C(=O)[C@H](C(C)C)NC(=O)[C@H](CCCN)NC(=O)[C@H](C(C)C)NC(=O)[C@@H]1CCCN1C(=O)[C@@H](Cc1ccccc1)NC(=O)[C@H](C(C)C)NC(=O)[C@H](CCCN)NC(=O)[C@H]([C@@H](C)O)NC2=O [Peptide 6] (T[Orn]V[dF]PV[Orn]V; linker N-C via X2) | 30.8 ± 15.0 µg/mL | 13.2 ± 13.3 µg/mL | 8.6 ± 0.0 µg/mL | 20.6 ± 1.7 µg/mL | 6.3 ± 2.3 µg/mL | 22.9 | – | –
6 | Cc1sc2cc1C1=C(CCC1)c1cc(sc1C)C(=O)[C@@H]1CCCN1C(=O)[C@H](C(C)C)NC(=O)[C@H](CCCN)NC(=O)[C@H](C(C)C)NC(=O)[C@@H]1CCCN1C(=O)[C@@H](Cc1ccccc1)NC(=O)[C@H](C(C)C)NC(=O)[C@H](CCCN)NC(=O)[C@H](CC(=O)NC(C)C)NC2=O [Peptide 7] (D(NHiPr)[Orn]V[dF]PV[Orn]V; linker N-C via X2) | 15.9 ± 4.3 µg/mL | 8.7 ± 9.1 µg/mL | 5.8 ± 0.4 µg/mL | 18.2 ± 4.6 µg/mL | 3.0 ± 2.5 µg/mL | 45.9 | – | –
7 | Cc1sc2cc1C1=C(CCC1)c1cc(sc1C)C(=O)[C@@H]1CCCN1C(=O)[C@H](C(C)C)NC(=O)[C@H](CCCN)NC(=O)[C@H](C(C)C)NC(=O)[C@@H]1CCCN1C(=O)[C@@H](Cc1ccccc1)NC(=O)[C@H](C(C)C)NC(=O)[C@H](CCCN)NC(=O)[C@H](CCNC(=O)C(C)C)NC2=O [Peptide 8] ([Dab](Isobutyryl)[Orn]V[dF]PV[Orn]V; linker N-C via X2) | 12.0 ± 0.8 µg/mL | 5.7 ± 0.4 µg/mL | 3.9 ± 1.5 µg/mL | 9.6 ± 5.6 µg/mL | 3.0 ± 2.7 µg/mL | 121 and 121.2 | – | –
8 | CC[C@H](C)[C@@H]1NC(=O)c2cc(c(C)s2)C2=C(CCC2)c2cc(sc2C)C(=O)[C@@H]2CCCN2C(=O)[C@H](CC(C)C)NC(=O)[C@H](CCCN)NC(=O)[C@H]([C@@H](C)CC)NC(=O)[C@@H]2CCCN2C(=O)[C@H]2CCCN2C(=O)[C@H](CC(C)C)NC(=O)[C@H](CCCN)NC1=O [Peptide 9] (I[Orn]L[dP]PI[Orn]L; linker N-C via X2) | 2.0 ± 1.1 µg/mL | 2.1 ± 0.8 µg/mL | 1.6 ± 0.3 µg/mL | 2.2 ± 0.5 µg/mL | 0.8 ± 0.1 µg/mL | 5.7 | 9.1 ± 2.7 µg/mL | –
9 | CC[C@H](C)[C@@H]1NC(=O)c2cc(c(C)s2)C2=C(CCC2)c2cc(sc2C)C(=O)[C@@H]2CCCN2C(=O)[C@H]([C@@H](C)CC)NC(=O)[C@H](CCCN)NC(=O)[C@H](CC(C)C)NC(=O)[C@H](CC(C)C)N(C)C(=O)[C@@H](Cc2ccccc2)NC(=O)[C@H]([C@@H](C)CC)NC(=O)[C@H](CCCN)NC1=O [Peptide 10] (I[Orn]I[dF][NMeL]L[Orn]I; linker N-C via X2) | 1.3 ± 1.5 µg/mL | 1.0 ± 0.6 µg/mL | 1.0 ± 0.6 µg/mL | 2.2 ± 1.0 µg/mL | 1.3 ± 1.5 µg/mL | 9.5 | 9.5 ± 0.1 µg/mL | –
10 | Cc1sc2cc1C1=C(CCC1)c1cc(sc1C)C(=O)[C@@H]1CCCN1C(=O)[C@H](C(C)C)NC(=O)[C@H](CCCN)NC(=O)[C@H](C(C)C)NC(=O)[C@@H]1CCCN1C(=O)[C@@H](Cc1ccccc1)NC(=O)[C@H](C(C)C)NC(=O)[C@H](CCCN)NC(=O)[C@H]([C@H](O)C(C)C)NC2=O [Peptide 12] ([Leu(3R-OH)][Orn]V[dF]PV[Orn]V; linker N-C via X2) | 9.2 ± 1.1 µg/mL | 6.7 ± 0.4 µg/mL | 3.6 ± 0.5 µg/mL | 6.2 ± 0.0 µg/mL | 2.1 ± 1.0 µg/mL | 21.4 | 77.0 ± 19.4 µg/mL | –
11 | Cc1sc2cc1C1=C(CCC1)c1cc(sc1C)C(=O)[C@@H]1CCCN1C(=O)[C@H](C(C)C)NC(=O)[C@H](CCCN)NC(=O)[C@H]([C@H](O)C(C)C)NC(=O)[C@@H]1CCCN1C(=O)[C@@H](Cc1ccccc1)NC(=O)[C@H](C(C)C)NC(=O)[C@H](CCCN)NC(=O)[C@H](C(C)C)NC2=O [Peptide 13] (V[Orn]V[dF]P[Leu(3R-OH)][Orn]V; linker N-C via X2) | 4.8 ± 3.8 µg/mL | 4.3 ± 3.8 µg/mL | 2.2 ± 1.0 µg/mL | 6.4 ± 0.4 µg/mL | 3.4 ± 0.5 µg/mL | 20.5 | – | 45.0^b µg/mL
12 | Cc1sc2cc1C1=C(CCC1)c1cc(sc1C)C(=O)[C@@H]1CCCN1C(=O)[C@H]([C@H](O)C(C)C)NC(=O)[C@H](CCCN)NC(=O)[C@H](C(C)C)NC(=O)[C@@H]1CCCN1C(=O)[C@@H](Cc1ccccc1)NC(=O)[C@H](C(C)C)NC(=O)[C@H](CCCN)NC(=O)[C@H](C(C)C)NC2=O [Peptide 14] | 8.1 ± 2.0 µg/mL | 6.2 ± 0.7 µg/mL | 2.0 ± 0.0 µg/mL | 9.1 ± 4.2 µg/mL | 4.6 ± 2.0 µg/mL | 25.2 | 50.4 ± 27.2 µg/mL | –
